Where a SMILES comes first, the peptide text is derived from it. Bridges are numbered along the chain shown (N, C = ends).
How the values were obtained:
Format in all cases: cell-based
Conditions in all cases: 300 nM; −90 mV to +40 mV, 30 ms; n=5
Nav1.4 = target: T1, Nav1.4 (Homo sapiens, UniProt P35499); test: Whole-cell patch clamp on Nav1.4 overexpressing HEK293 cells
T1 construct: expressed in transfected cells; host or cells: HEK293
Experimental: (§1) The effect of the polypeptide PPN-01 provided in Example 1 on voltage gated sodium channels is studied using the glass microelectrodes prepared as described above in Example 2 and employing the whole-cell membrane clamp techniques. The specific operations are as follows:
(§2) 1. Firstly, internal electrode solution is placed on ice to defrost; after defrosting, an appropriate amount of internal electrode solution is drawn up with a 1 ml syringe; and after a homemade filler is applied to the tip end of the syringe, the air in the tube is emptied to fill the entire filler with internal electrode solution. Secondly, internal electrode solution in the filler is poured into the glass microelectrode from a rear part thereof by using the rear part perfusion method; internal electrode solution is slowly injected into the glass microelectrode; and the amount of perfusion is generally ⅓ to ½ of a length of the glass microelectrode (it is necessary to ensure that the silver wire of the electrode may fully contact internal electrode solution, but also to avoid electrode contamination resulting from too much internal electrode solution). […]

Nav1.5 = target: T2, Nav1.5 (Homo sapiens, UniProt Q14524); test: Whole-cell patch clamp on Nav1.5 overexpressing HEK293 cells
T2 construct: expressed in transfected cells; host or cells: HEK293
T2 sequence (Q14524 whole entry): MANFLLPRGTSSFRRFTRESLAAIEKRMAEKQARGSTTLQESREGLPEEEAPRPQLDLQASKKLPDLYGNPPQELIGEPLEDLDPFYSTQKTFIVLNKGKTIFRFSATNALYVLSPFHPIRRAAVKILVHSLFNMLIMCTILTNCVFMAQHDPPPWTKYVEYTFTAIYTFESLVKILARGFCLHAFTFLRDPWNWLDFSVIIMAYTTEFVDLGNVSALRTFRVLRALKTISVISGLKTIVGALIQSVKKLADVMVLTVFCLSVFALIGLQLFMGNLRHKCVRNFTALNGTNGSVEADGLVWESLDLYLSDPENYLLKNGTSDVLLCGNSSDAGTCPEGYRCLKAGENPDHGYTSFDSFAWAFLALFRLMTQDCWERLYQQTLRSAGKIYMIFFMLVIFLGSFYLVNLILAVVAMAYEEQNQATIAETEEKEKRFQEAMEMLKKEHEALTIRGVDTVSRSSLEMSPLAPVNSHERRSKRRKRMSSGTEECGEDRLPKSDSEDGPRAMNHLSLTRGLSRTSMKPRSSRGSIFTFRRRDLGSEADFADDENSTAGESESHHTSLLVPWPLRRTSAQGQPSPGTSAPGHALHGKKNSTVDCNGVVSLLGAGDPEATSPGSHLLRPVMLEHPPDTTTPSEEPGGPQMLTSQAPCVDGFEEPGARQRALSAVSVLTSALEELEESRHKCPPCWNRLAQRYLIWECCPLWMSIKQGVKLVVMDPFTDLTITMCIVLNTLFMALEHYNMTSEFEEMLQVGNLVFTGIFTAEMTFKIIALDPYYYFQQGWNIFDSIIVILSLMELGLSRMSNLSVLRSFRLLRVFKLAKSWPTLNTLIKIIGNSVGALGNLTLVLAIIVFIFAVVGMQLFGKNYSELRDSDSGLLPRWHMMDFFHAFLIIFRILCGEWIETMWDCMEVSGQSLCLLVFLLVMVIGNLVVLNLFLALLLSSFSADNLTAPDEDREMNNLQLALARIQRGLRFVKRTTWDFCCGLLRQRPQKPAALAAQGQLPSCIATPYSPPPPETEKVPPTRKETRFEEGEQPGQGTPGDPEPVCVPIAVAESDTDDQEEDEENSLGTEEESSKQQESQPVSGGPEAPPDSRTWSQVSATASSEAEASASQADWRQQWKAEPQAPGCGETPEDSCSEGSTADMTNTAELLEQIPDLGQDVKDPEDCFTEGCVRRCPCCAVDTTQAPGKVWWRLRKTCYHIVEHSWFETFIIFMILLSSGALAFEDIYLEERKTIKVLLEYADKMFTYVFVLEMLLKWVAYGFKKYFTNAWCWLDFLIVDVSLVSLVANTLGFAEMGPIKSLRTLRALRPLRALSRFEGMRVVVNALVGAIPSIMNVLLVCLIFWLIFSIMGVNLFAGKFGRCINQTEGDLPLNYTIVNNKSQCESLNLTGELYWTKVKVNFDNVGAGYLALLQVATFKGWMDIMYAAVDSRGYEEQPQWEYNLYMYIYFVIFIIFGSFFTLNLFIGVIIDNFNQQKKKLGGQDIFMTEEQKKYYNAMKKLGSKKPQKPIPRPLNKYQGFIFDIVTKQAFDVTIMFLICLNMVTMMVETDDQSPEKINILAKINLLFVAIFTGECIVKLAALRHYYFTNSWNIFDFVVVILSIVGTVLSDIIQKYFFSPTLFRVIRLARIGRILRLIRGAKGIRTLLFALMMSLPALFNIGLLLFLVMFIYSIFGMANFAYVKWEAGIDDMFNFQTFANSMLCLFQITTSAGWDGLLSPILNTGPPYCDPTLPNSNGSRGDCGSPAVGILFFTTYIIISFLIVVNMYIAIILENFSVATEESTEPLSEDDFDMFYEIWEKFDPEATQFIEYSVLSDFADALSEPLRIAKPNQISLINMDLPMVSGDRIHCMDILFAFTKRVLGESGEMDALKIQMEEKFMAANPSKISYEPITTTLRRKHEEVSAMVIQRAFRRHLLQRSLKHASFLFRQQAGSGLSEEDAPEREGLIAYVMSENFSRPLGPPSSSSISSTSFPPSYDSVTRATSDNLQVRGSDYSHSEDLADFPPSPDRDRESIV
Experimental: as §1, §2

Nav1.6 = target: T3, Nav1.6 (Homo sapiens, UniProt Q9UQD0); test: Whole-cell patch clamp on Nav1.6 overexpressing HEK293 cells
T3 construct: expressed in transfected cells; host or cells: HEK293
T3 sequence (Q9UQD0 whole entry): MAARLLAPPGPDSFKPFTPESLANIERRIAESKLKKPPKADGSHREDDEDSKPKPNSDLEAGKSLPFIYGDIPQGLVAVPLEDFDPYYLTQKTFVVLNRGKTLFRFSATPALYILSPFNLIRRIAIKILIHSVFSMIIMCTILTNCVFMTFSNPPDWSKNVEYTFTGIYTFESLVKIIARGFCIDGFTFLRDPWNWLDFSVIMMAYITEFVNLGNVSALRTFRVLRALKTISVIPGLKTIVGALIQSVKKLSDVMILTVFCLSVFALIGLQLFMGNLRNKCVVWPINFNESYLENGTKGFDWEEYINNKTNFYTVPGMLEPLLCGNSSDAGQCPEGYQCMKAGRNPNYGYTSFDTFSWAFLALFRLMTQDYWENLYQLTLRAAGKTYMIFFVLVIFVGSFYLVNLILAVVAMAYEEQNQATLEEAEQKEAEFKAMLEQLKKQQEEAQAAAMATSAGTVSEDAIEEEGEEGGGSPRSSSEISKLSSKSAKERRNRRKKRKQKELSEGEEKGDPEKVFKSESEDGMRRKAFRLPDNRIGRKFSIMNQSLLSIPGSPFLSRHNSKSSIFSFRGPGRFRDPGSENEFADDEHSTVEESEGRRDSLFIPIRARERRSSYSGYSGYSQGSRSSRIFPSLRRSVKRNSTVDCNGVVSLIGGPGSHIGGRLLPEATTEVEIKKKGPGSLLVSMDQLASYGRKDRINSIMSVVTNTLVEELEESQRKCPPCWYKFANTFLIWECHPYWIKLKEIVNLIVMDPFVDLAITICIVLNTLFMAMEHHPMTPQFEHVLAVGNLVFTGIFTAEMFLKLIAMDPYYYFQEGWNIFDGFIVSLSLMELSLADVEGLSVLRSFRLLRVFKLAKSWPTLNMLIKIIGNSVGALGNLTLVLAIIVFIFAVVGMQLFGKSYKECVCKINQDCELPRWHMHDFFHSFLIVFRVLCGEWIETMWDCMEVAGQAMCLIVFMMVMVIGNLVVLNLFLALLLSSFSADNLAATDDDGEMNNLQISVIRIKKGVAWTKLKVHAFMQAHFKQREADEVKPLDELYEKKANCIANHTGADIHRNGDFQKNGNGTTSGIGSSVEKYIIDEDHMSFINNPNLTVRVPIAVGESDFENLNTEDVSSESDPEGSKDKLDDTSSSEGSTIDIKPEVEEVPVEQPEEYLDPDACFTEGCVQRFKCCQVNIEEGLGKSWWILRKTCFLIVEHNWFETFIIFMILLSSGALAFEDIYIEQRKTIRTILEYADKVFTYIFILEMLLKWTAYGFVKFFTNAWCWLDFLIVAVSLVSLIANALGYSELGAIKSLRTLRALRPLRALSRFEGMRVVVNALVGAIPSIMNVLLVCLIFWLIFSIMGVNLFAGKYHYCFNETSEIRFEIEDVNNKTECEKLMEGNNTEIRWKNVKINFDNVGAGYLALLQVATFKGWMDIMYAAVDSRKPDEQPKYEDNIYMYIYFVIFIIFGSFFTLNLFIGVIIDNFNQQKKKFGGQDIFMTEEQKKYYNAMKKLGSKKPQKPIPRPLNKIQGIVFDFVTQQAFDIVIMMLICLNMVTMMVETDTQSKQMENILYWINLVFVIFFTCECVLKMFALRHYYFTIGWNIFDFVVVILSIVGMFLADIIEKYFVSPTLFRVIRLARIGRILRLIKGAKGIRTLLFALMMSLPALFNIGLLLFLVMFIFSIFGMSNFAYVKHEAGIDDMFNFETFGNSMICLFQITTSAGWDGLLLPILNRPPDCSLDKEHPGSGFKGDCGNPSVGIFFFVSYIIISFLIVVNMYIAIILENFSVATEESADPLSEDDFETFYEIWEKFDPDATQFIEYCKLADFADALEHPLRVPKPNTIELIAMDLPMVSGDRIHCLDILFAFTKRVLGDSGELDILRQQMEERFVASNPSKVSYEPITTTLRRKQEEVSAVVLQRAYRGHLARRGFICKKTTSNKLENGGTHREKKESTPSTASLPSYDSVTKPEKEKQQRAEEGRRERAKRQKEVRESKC
Experimental: as §1, §2

CSCC[C@@H]1NC(=O)CNC(=O)[C@H](CCC(=O)O)NC(=O)[C@@H]2CSSC[C@H](NC(=O)[C@H](Cc3ccc(O)cc3)NC(C)=O)C(=O)N[C@@H](CCC(N)=O)C(=O)N[C@@H](CCCCN)C(=O)N[C@@H](Cc3ccccc3)C(=O)N[C@@H](CC(C)C)C(=O)N[C@@H](C)C(=O)N3CCC[C@H]3C(=O)N[C@H]3CSSC[C@H](NC(=O)[C@H](CCC(=O)O)NC1=O)C(=O)N[C@@H](CCCCN)C(=O)N[C@@H](CC(C)C)C(=O)N[C@@H](Cc1c[nH]c4ccccc14)C(=O)N[C@H](C(=O)N[C@@H](CCCCN)C(=O)N[C@@H](CCCCN)C(=O)N[C@@H](CCCCN)C(=O)N[C@@H](CC(C)C)C(=O)N[C@@H](Cc1c[nH]c4ccccc14)C(N)=O)CSSC[C@H](NC(=O)[C@H](CCCCN)NC(=O)[C@H](CCCNC(=N)N)NC(=O)[C@H](CCC(=O)O)NC(=O)[C@H](CO)NC(=O)[C@H](CC(=O)O)NC3=O)C(=O)N2 [PPN-01] (Ac-YCQKFLAPCDSERKCCEGMECKLWCKKKLW-NH2; disulfide 2-16, 9-21, 15-25)
no significant inhibition effect: inhibition effect on Nav1.4 overexpressing HEK293 cells (Nav1.4) | inhibition effect on Nav1.5 overexpressing HEK293 cells (Nav1.5) | inhibition effect on Nav1.6 overexpressing HEK293 cells (Nav1.6)

Source: US20260042802A1, “POLYPEPTIDE AND USE THEREOF” (priority 2024, published 2026)
